Data as given in PubChem BioAssay (NCI).
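Briefly, cells in 96-well plates were exposed to five compound concentrations for 48 h, and endpoints were estimated by linear interpolation. TGI marks complete inhibition of growth.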

Key:
Experiment in all cases: growth of human tumour cells (NCI), 48 h
LXFL 529 NSCLC = test system: LXFL 529 NSCLC
HCT-15 colon = test system: HCT-15 colon
DMS 114 small cell lung = test system: DMS 114 small cell lung
DMS 273 small cell lung = test system: DMS 273 small cell lung
DLD-1 colon = test system: DLD-1 colon
IGROV1 ovarian = test system: IGROV1 ovarian
HOP-18 NSCLC = test system: HOP-18 NSCLC
M19-MEL melanoma = test system: M19-MEL melanoma
KM20L2 colon = test system: KM20L2 colon
CAKI-1 renal = test system: CAKI-1 renal
XF 498 CNS = test system: XF 498 CNS
SNB-78 CNS = test system: SNB-78 CNS
CCRF-CEM leukemia = test system: CCRF-CEM leukemia
RXF-631 renal = test system: RXF-631 renal
BT-549 breast = test system: BT-549 breast

SMILES	TGI (LXFL 529 NSCLC)	TGI (HCT-15 colon)	TGI (DMS 114 small cell lung)	TGI (DMS 273 small cell lung)	TGI (DLD-1 colon)	TGI (IGROV1 ovarian)	TGI (HOP-18 NSCLC)	TGI (M19-MEL melanoma)	TGI (KM20L2 colon)	TGI (CAKI-1 renal)	TGI (XF 498 CNS)	TGI (SNB-78 CNS)	TGI (CCRF-CEM leukemia)	TGI (RXF-631 renal)	TGI (BT-549 breast)
O/N=C/c1ncccc1C1OCCO1	> 100 µM	> 100 µM	> 100 µM	> 100 µM	> 100 µM	> 100 µM	> 100 µM	> 100 µM	> 100 µM	> 100 µM	> 100 µM	> 100 µM	> 100 µM	–	–
CC1OC(OC2C(OC(=O)[C@]34CCC(C)(C)CC3C3=CCC5[C@@]6(C)C[C@H](O)[C@H](OC7OC(CO)C(O)C(O)C7N)[C@@](C)(C(=O)O)C6CC[C@@]5(C)C3(C)CC4)OCC(O)C2O)C(O)C(O)C1OC1OCC(O)C(O)C1O (stereo partly drawn)	–	> 100 µM	> 100 µM	> 100 µM	> 100 µM	> 100 µM	> 100 µM	> 100 µM	> 100 µM	> 100 µM	–	> 100 µM	> 100 µM	–	–
Cc1cccc(C(C)C)c1NC(=O)/C(Cc1c([N+](=O)[O-])cccc1[N+](=O)[O-])=N/NC(=O)CC#N	> 100 µM	> 100 µM	> 100 µM	> 100 µM	> 100 µM	> 100 µM	> 100 µM	> 100 µM	> 100 µM	> 100 µM	–	–	> 100 µM	> 100 µM	–
NC(=S)N1N=C2c3ccccc3CC[C@@H]2[C@@H]1c1ccccc1	97.6 µM	24.6 µM	8.01 µM	20.7 µM	> 86.4 µM	> 80.3 µM	> 100 µM	47.2 µM	16.3 µM	42.2 µM	–	> 82 µM	62.3 µM	> 100 µM	–
O=C(NC12CC3CC(CC(F)(C3)C1)C2)c1ccccc1	> 100 µM	–	> 100 µM	> 100 µM	> 100 µM	> 100 µM	–	> 100 µM	> 100 µM	–	> 100 µM	> 100 µM	> 100 µM	–	–
NC(=O)COC(=O)c1c(Cl)nc2sccn12	> 100 µM	> 55.1 µM	> 83.8 µM	> 100 µM	> 100 µM	> 100 µM	> 100 µM	> 100 µM	> 100 µM	> 100 µM	> 100 µM	> 100 µM	> 31.6 µM	> 100 µM	–
O=C(CCN(C(=O)O)S(=O)(=O)c1ccc(NC(=O)c2ccccc2)cc1)NC1CCCCC1	> 100 µM	> 100 µM	> 100 µM	> 100 µM	> 100 µM	> 100 µM	> 100 µM	> 100 µM	> 100 µM	> 100 µM	> 100 µM	> 100 µM	> 100 µM	–	–
Cc1ccc([N+](=O)[O-])cc1S(=O)(=O)Nc1ccc(C2=NN(c3ccc([N+](=O)[O-])cc3[N+](=O)[O-])C(c3cccs3)C2)cc1 (stereo not drawn)	–	32.7 µM	–	–	–	53.7 µM	–	–	–	> 100 µM	–	–	> 100 µM	–	49.8 µM
CCC/C=C/c1cc2c(cc1O)CC[C@@H]1[C@@H]2CC[C@]2(C)[C@@H](O)CC[C@@H]12	–	39.9 µM	–	–	–	49.4 µM	–	–	–	41.8 µM	–	–	32.8 µM	–	36.1 µM
CC(=O)c1sc2c(c1OC(=O)c1ccco1)c(=O)n(-c1ccccc1)c(=S)n2-c1ccccc1	–	41.9 µM	–	–	–	54.2 µM	–	–	–	> 100 µM	–	–	43.5 µM	–	62.3 µM
C[N+](C)(C)CCCSc1nc2ccccc2[nH]1	–	> 100 µM	–	–	–	> 100 µM	–	–	–	> 100 µM	–	–	> 100 µM	–	> 100 µM
COC1(C)CP(=O)(OC(C)C)CC(C)=C1Cl (stereo not drawn)	–	29.2 µM	–	–	–	29.6 µM	–	–	–	36.8 µM	–	–	15.7 µM	–	46.6 µM
O=C(O)COCC(=O)N(CCOCCN(Cc1ccccc1)C(=O)COCC(=O)O)Cc1ccccc1	–	> 100 µM	–	–	–	> 100 µM	–	–	–	> 100 µM	–	–	> 100 µM	–	> 100 µM
O=c1cc(N2CCNCC2)nc2ccccn12	–	> 100 µM	–	–	–	> 100 µM	–	–	–	> 100 µM	–	–	> 100 µM	–	> 100 µM
COc1ccc2c(c1)-c1nc(=S)n(CCCN(C)C)c3ccc([N+](=O)[O-])c(c13)N2	–	17.1 µM	–	–	–	2.41 µM	–	–	–	19.8 µM	–	–	1.41 µM	–	21.7 µM
O=c1oc2ccccc2cc1-c1csc(Nc2ccc(F)cc2)n1	–	11.2 µM	–	–	–	21.9 µM	–	–	–	10.6 µM	–	–	16.3 µM	–	17.4 µM
COC(=O)C1=C(O)C(C(=O)OC)[C@]2(O)[C@H](C(=O)OC)[C@H]1C[C@@H](c1ccc(OC)c(OC)c1)[C@H]2C(=O)OC (stereo partly drawn)	–	36.5 µM	–	–	–	> 100 µM	–	–	–	> 100 µM	–	–	> 100 µM	–	83.7 µM
COc1ccc2c(c1)C(=O)Cc1ccccc1CC2	> 100 µM	> 100 µM	> 100 µM	> 100 µM	> 100 µM	> 100 µM	> 100 µM	> 100 µM	> 100 µM	> 100 µM	> 100 µM	> 100 µM	> 100 µM	–	–
Cc1cc(C)c2c(O)c(S(=O)(=O)c3ccc(Cl)cc3)c(=O)oc2c1	–	> 100 µM	–	–	–	> 100 µM	–	–	–	> 100 µM	–	–	> 100 µM	–	> 100 µM
CCOC(=O)N(NC(=O)NC(C)C)c1ccccc1	–	> 100 µM	–	–	–	> 100 µM	–	–	–	> 100 µM	–	–	> 100 µM	–	> 100 µM
COc1cc2ncnc(Nc3cccc(Cl)c3)c2cc1OC	–	52.8 µM	–	–	–	10.3 µM	–	–	–	25.5 µM	–	–	19.6 µM	–	13.7 µM
N#CC1C(=O)N(c2ccccc2)NC12OC(=O)c1ccncc12 (stereo not drawn)	–	> 20 µM	–	–	–	> 20 µM	–	–	–	> 20 µM	–	–	> 20 µM	–	> 20 µM
O=P1(O)c2ccccc2CCc2ccccc21	–	> 100 µM	–	–	–	> 100 µM	–	–	–	> 100 µM	–	–	> 100 µM	–	> 100 µM
Nc1nc(I)nc2c1ncn2C1OC(COS(N)(=O)=O)C(O)C1O (stereo not drawn)	–	0.305 µM	–	–	–	0.0401 µM	–	–	–	0.129 µM	–	–	0.0268 µM	–	0.103 µM
O=C(O)C1CCCN(CCc2c[nH]c3ccccc23)C1 (stereo not drawn)	–	> 100 µM	–	–	–	> 100 µM	–	–	–	> 100 µM	–	–	> 100 µM	–	> 100 µM
COC(=O)CC(c1cn(S(=O)(=O)c2ccc(C)cc2)c2ccccc12)C1C[C@@H](C(=O)OC)N(C(=O)OC(C)(C)C)C1=O (stereo partly drawn)	–	> 100 µM	–	–	–	> 100 µM	–	–	–	> 100 µM	–	–	76.9 µM	–	> 100 µM
COc1ccc(N2C(=O)/C(=C/c3ccc(N(CCC#N)CCC#N)cc3C)N=C2c2cc([N+](=O)[O-])ccc2Cl)cc1	> 100 µM	59.5 µM	> 23.5 µM	> 27 µM	> 100 µM	> 63.1 µM	> 100 µM	> 100 µM	7.39 µM	> 36.3 µM	8.12 µM	> 100 µM	37.7 µM	–	> 100 µM
CCOC(=O)/C(=C\c1ccccc1)C(=O)O	–	> 100 µM	> 100 µM	> 100 µM	–	> 100 µM	–	> 100 µM	> 100 µM	> 100 µM	> 100 µM	> 100 µM	> 100 µM	–	–
C/C(Cl)=N/OC(=O)Nc1ccc(S(N)(=O)=O)c(C)c1	–	3.86 µM	–	–	–	33.4 µM	–	–	–	3.23 µM	–	–	3.99 µM	–	25.1 µM
